What was measured:
Assay in all cases: relative viability (nuclei count vs DMSO), 5 days (fraction); higher = more cells survive
Pazopanib + Decitabine = compound: Cc1ccc(Nc2nccc(N(C)c3ccc4c(C)n(C)nc4c3)n2)cc1S(N)(=O)=O [Pazopanib] + Nc1ncn([C@H]2C[C@H](O)[C@@H](CO)O2)c(=O)n1 [Decitabine] (partner 2 µM)
Outline: (§1)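 A single step with final 0.05% Triton X-100, 1% formaldehyde and 1 ug/ml Hoechst fixed the cells and stained nuclei 5 days after treatment. Lung cancer cell lines in 1536-well plates had been treated by pin tool the day after seeding with one drug alone or a fixed anchor-drug dose plus five library-drug doses (not always all listed) in √10 steps, and nuclei were counted on 4× images. Relative viability is the ratio of nuclei in treated wells to nuclei in vehicle wells, taken as the median of duplicate plates.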

Pazopanib + Tozasertib = compound: Cc1ccc(Nc2nccc(N(C)c3ccc4c(C)n(C)nc4c3)n2)cc1S(N)(=O)=O [Pazopanib] + Cc1cc(Nc2cc(N3CCN(C)CC3)nc(Sc3ccc(NC(=O)C4CC4)cc3)n2)n[nH]1 [Tozasertib] (partner 0.1 µM)
Outline: as §1

Ponatinib + Olaparib = compound: Cc1ccc(C(=O)Nc2ccc(CN3CCN(C)CC3)c(C(F)(F)F)c2)cc1C#Cc1cnc2cccnn12 [Ponatinib] + O=C(c1cc(Cc2n[nH]c(=O)c3ccccc23)ccc1F)N1CCN(C(=O)C2CC2)CC1 [Olaparib] (partner 8 µM)
Outline: as §1

Ponatinib + Lapatinib = compound: Cc1ccc(C(=O)Nc2ccc(CN3CCN(C)CC3)c(C(F)(F)F)c2)cc1C#Cc1cnc2cccnn12 [Ponatinib] + CS(=O)(=O)CCNCc1ccc(-c2ccc3ncnc(Nc4ccc(OCc5cccc(F)c5)c(Cl)c4)c3c2)o1 [Lapatinib] (partner 2 µM)
Outline: as §1

| Cell Line | relative viability (Pazopanib + Decitabine; first compound 0.01 µM) | relative viability (Pazopanib + Decitabine; first compound 0.03162 µM) | relative viability (Pazopanib + Decitabine; first compound 0.1 µM) | relative viability (Pazopanib + Decitabine; first compound 0.3162 µM) | relative viability (Pazopanib + Decitabine; first compound 1 µM) | relative viability (Pazopanib + Tozasertib; first compound 0.01 µM) | relative viability (Pazopanib + Tozasertib; first compound 0.03162 µM) | relative viability (Pazopanib + Tozasertib; first compound 0.1 µM) | relative viability (Pazopanib + Tozasertib; first compound 0.3162 µM) | relative viability (Pazopanib + Tozasertib; first compound 1 µM) | relative viability (Ponatinib + Olaparib; first compound 0.002 µM) | relative viability (Ponatinib + Olaparib; first compound 0.006325 µM) | relative viability (Ponatinib + Olaparib; first compound 0.06325 µM) | relative viability (Ponatinib + Olaparib; first compound 0.2 µM) | relative viability (Ponatinib + Lapatinib; first compound 0.006325 µM) | relative viability (Ponatinib + Lapatinib; first compound 0.06325 µM) | relative viability (Ponatinib + Lapatinib; first compound 0.2 µM) | relative viability (Ponatinib + Lapatinib; first compound 0.002 µM) |
| --- | --- | --- | --- | --- | --- | --- | --- | --- | --- | --- | --- | --- | --- | --- | --- | --- | --- | --- |
| NCI-H1395 | 0.651 | 0.69 | 0.638 | 0.766 | 0.743 | 0.793 | 0.715 | 0.764 | 0.915 | 0.747 | 0.446 | 0.425 | 0.47 | 0.433 | 0.888 | 0.782 | 0.753 | – |
| NCI-H1437 | 0.541 | 0.611 | 0.626 | 0.602 | 0.567 | 0.414 | 0.42 | 0.408 | 0.412 | 0.375 | 0.598 | 0.595 | 0.654 | 0.623 | 0.848 | 0.885 | 0.758 | 0.742 |
| NCI-H1650 | 0.431 | 0.419 | 0.464 | 0.405 | 0.603 | 0.47 | 0.382 | 0.443 | 0.539 | 0.312 | 0.919 | 0.884 | 0.916 | 0.751 | 0.811 | 0.636 | 0.62 | 0.735 |
| NCI-H1651 | 0.543 | 0.644 | 0.644 | 0.552 | 0.656 | 0.708 | 0.603 | 0.733 | 0.725 | 0.685 | 0.197 | 0.195 | 0.18 | 0.177 | 0.955 | 0.896 | 0.756 | 0.724 |
| NCI-H1666 | 0.703 | 0.716 | 0.636 | 0.76 | 0.765 | 0.573 | 0.649 | 0.625 | 0.609 | 0.648 | 0.749 | 0.76 | 0.733 | 0.664 | 0.666 | 0.796 | 0.773 | 0.619 |
| NCI-H1734 | 0.498 | 0.492 | 0.461 | 0.532 | 0.512 | 0.262 | 0.242 | 0.28 | 0.261 | 0.234 | 0.62 | 0.618 | 0.673 | 0.488 | 0.991 | 1.09 | 0.888 | 0.955 |
| NCI-H1755 | 0.718 | 0.709 | 0.742 | 0.773 | 0.783 | 0.584 | 0.614 | 0.561 | 0.557 | 0.567 | 0.806 | 0.856 | 0.882 | 0.782 | 1.08 | 1.06 | 0.943 | 0.977 |
| NCI-H1793 | – | 0.516 | 0.488 | 0.506 | 0.627 | – | 0.347 | 0.275 | 0.367 | 0.374 | 0.882 | 0.986 | 1.01 | 0.756 | 0.786 | 0.645 | 0.459 | 0.645 |
| NCI-H1915 | 0.244 | 0.264 | 0.263 | 0.261 | 0.291 | 0.455 | 0.422 | 0.468 | 0.407 | 0.399 | 0.254 | 0.275 | 0.278 | 0.234 | 0.95 | 0.986 | 1.02 | 0.908 |
| NCI-H1944 | 0.463 | 0.424 | 0.424 | 0.427 | 0.467 | – | 0.234 | 0.258 | 0.252 | 0.257 | 0.378 | 0.455 | 0.427 | 0.441 | 0.807 | 0.915 | 0.849 | 0.775 |
| NCI-H1975 | 0.374 | 0.373 | 0.394 | 0.401 | 0.374 | 0.665 | 0.693 | 0.854 | 0.742 | 0.581 | 0.756 | 0.77 | 0.787 | 0.732 | 0.817 | 1.14 | 1.03 | 0.811 |
| NCI-H1993 | – | 0.493 | 0.607 | 0.678 | 0.59 | – | 0.54 | 0.656 | 0.589 | 0.579 | 1.01 | 1.01 | 1.16 | 1.12 | 0.78 | 0.872 | 0.872 | 0.885 |
| NCI-H2009 | 0.334 | 0.387 | 0.396 | 0.343 | 0.382 | 0.787 | 0.738 | 0.613 | 0.801 | 0.51 | 0.586 | 0.632 | 0.655 | 0.616 | 0.887 | 1.08 | 0.946 | 0.865 |
| NCI-H2023 | 0.206 | 0.236 | 0.228 | 0.206 | 0.265 | 0.467 | 0.318 | 0.38 | 0.331 | 0.242 | 0.455 | 0.465 | 0.552 | 0.451 | 0.861 | 0.958 | 0.642 | 0.81 |
